The text below walks through data of patent publication US20110038867A1, “REMEDIES FOR PEMPHIGUS CONTAINING ANTI FAS LIGAND ANTIBODIES” (priority 2007, published 2011).

One test relates to human keratinocytes. The experiment in a line: Pemphigus sera-induced keratinocyte apoptosis, TUNEL staining. The format is cell-based. The following applies: sera pretreated with anti-FasL neutralizing antibody (2.5 mg per ml for 30 min) or Z-IETD-FMK (100 μM for 30 min); FIG. 6. As for the experimental part: As apoptotic keratinocytes are abundantly expressed in pemphigus, we wanted to explore whether pemphigus sera are capable of inducing apoptosis in normal human keratinocytes. To this purpose, keratinocytes were plated in chamber slides and cultured in serum-free medium (KGM) up to preconfluence. Cells were then cultured in keratinocyte basal medium and treated for 48 h with the addition of 25% serum from either untreated patients or patients treated with systemic corticosteroids. Sera from healthy subjects were used as controls. Apoptosis was evaluated by TUNEL staining in situ. Approximately 100 cells were evaluated, in randomly selected fields, and the percentage of TUNEL-positive cells was counted.
FasL is one of the major triggers of the caspase-8 activated extrinsic apoptotic pathway. Therefore, we wanted to evaluate whether this pathway plays a role in pemphigus apoptosis. To this purpose, patient sera were pretreated with anti-FasL neutralizing antibody or caspase-8 inhibitor, and added to keratinocyte cultures. Keratinocytes were cultured in KGM and treated with pemphigus sera or with sera from untreated patients. Sera were pretreated with anti-FasL neutralizing antibody (2.5 mg per ml for 30 min) or caspase-8 inhibitor Z-IETD-FMK (100 μM for 30 min). Apoptosis was evaluated by TUNEL staining.

Test [1] has as its system keratinocytes. Put plainly: Pemphigus sera-induced Dsg3 cleavage and caspase-8 activation in confluent keratinocytes, Western blotting. Type of test: cell-based, human. The following applies: pretreatment with Z-IETD-FMK (100 μM for 30 min) or NOK2 15 μg/ml, then sera 72 hrs; FIG. 12A. As for the experimental part:
To investigate whether the extrinsic apoptotic pathway is responsible for dsg cleavage, we pretreated confluent keratinocytes with caspase-8 inhibitor Z-IETD-FMK (100 μM for 30 min) or with anti-FasL (NOK2, 15 μg/ml) Ab. Then cells were incubated for 72 hrs with healthy or untreated pemphigus sera. Protein extracts from the culture were analyzed by Western blotting using anti-Dsg3 antibodies and anti-caspase-8 Ab. Vinculin was used as internal control. (FIG. 12A).
(In general: In western blotting, separated proteins are transferred to a membrane and probed.)

Test [2] relates to keratinocytes. The experiment in a line: Pemphigus sera-induced cell detachment (acantholysis) of confluent keratinocytes. The format is cell-based, human. The following applies: pretreatment with Z-IETD-FMK (100 μM for 30 min) or NOK2 15 μg/ml, then sera 72 hrs; FIG. 12B.
Test [3] deals with keratinocytes. The experiment in a line: Treatment of keratinocytes with increasing amounts of FasL, Western blotting with anti-Dsg1 and anti-Dsg3. The format is cell-based, human. To be noted: FasL 0.1, 10, 100 ng/ml for 72 hrs; FIG. 9. On the procedure: Protein extracts from the culture were analyzed by Western blotting using anti-Dsg1 and anti-Dsg3 antibodies. β-actin was used as internal control. These doses are consistent with the ones detected in pemphigus sera (FIG. 9).

Peptide text beside a SMILES is read from it. * marks the point of attachment. Cbz = O=C(OCc1ccccc1)*; CH2F = FC*

Regarding `CC[C@H](C)[C@H](NC(=O)OCc1ccccc1)C(=O)N[C@@H](CCC(=O)OC)C(=O)N[C@H](C(=O)N[C@@H](CC(=O)OC)C(=O)CF)[C@@H](C)O` [Z-IETD-FMK] (Cbz-IE(OMe)TD(OMe)-CH2F), the “pemphigus sera-induced keratinocyte apoptosis (TUNEL staining)” value in the test with human keratinocytes is reported as “partially prevented”. In addition, in the test with keratinocytes [1], the “caspase-8 activation by untreated pemphigus sera” value is “prevents both caspase-8 activation and dsg cleavage”; the “dsg cleavage by untreated pemphigus sera” value is “prevents both caspase-8 activation and dsg cleavage”. Also, the “cell detachment (i.e. acantholysis) by untreated pemphigus sera” value in the test on keratinocytes [2] is on record as “prevented”.

B1: FasL: recombinant Fas ligand added to keratinocyte cultures (protein, UniProt P48023 130-281, looked up)
Tumor necrosis factor ligand …: QIGHPSPPPEKKELRKVAHLTGKSNSRSMPLEWEDTYGIVLLSGVKYKKGGLVINETGLYFVYSKVYFRGQSCNNLPLSHKVYMRNSKYPQDLVMMEGKMMSYCTTGQMWARSSYLGAVFNLTSADHLYVNVSELSLVNFEESQTFFGLYKL
Regarding B1, the “cleavage of dsgs (Dsg1, Dsg3) by FasL” value in the test with keratinocytes [3] is “cleaved dsgs in a dose-dependent manner”.
